Experimental data from PMC9103758 (International Journal of Molecular Sciences, 2022).
Values joined by “and” are separate entries in the source; they are usually repeats but may differ in a detail not shown here. Equal values may be shown once. Read-outs that look alike come from different tables or passages of the source.

How the values were obtained:
human CFTR = target: T1, human CFTR (Homo sapiens, UniProt P13569); test: Apical membrane current of CFTR in FRT cells expressing human CFTR; assay type: cell-based; settings: 20 μM
T1 construct: expressed in transfected cells; host or cells: Fisher rat thyroid (FRT) cells
T1 sequence (P13569 whole entry): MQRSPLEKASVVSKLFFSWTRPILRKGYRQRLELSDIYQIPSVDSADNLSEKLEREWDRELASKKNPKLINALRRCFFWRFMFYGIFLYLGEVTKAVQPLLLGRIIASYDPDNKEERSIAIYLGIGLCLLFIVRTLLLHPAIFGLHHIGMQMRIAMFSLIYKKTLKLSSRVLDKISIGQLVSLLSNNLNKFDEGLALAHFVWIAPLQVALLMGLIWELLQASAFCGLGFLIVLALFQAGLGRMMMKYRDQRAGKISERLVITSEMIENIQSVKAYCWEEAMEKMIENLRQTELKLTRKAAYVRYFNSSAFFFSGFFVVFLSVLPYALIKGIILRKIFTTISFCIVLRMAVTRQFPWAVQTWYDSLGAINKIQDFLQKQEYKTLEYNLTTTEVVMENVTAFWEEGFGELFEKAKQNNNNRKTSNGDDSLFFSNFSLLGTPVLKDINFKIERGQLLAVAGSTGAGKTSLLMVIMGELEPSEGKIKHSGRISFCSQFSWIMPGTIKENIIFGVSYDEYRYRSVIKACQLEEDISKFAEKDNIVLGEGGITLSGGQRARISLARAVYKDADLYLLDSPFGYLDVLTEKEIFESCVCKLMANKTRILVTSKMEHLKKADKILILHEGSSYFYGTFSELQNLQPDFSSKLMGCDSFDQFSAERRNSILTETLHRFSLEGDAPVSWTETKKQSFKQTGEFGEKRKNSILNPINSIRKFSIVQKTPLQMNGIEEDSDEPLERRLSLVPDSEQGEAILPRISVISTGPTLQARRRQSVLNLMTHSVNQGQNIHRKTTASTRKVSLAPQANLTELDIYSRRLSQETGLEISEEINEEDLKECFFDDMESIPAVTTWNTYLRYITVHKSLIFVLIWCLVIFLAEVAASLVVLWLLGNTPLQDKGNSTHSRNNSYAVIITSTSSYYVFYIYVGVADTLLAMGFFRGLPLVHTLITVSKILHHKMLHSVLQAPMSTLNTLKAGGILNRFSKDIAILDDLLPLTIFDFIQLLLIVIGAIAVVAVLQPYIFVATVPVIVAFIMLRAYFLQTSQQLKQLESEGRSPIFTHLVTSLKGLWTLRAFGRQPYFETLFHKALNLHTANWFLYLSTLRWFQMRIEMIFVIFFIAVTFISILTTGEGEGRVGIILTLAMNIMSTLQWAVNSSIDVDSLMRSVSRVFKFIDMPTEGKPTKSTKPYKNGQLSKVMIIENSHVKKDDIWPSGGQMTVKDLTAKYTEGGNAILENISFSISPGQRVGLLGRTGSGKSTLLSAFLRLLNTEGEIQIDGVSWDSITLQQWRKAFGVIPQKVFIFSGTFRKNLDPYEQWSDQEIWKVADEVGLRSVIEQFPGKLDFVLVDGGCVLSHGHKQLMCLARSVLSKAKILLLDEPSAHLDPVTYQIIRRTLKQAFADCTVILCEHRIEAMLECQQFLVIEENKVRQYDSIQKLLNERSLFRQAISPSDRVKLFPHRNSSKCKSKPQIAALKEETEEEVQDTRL
From the text: […]. (C) Summary of dose-response (mean ± S.E., n = 5). […]. (F) Summary of dose−response (mean ± S.E., n = 6).
Snapwell inserts containing ANO1(abc) or CFTR-expressing FRT cells were mounted in Ussing chambers (Physiological Instruments, San Diego, CA). The basolateral hemichamber was filled with buffer solution (in mM): 120 NaCl, 5 KCl, 1 MgCl2, 1 CaCl2, 10 D-glucose, 2.5 HEPES, and 25 NaHCO3 (pH 7.4). The apical hemichamber was filled with buffer solution (in mM): 60 NaCl, 60 Na-gluconate, 5 KCl, 1 MgCl2, 1 CaCl2, 10 D-glucose, 2.5 HEPES, and 25 NaHCO3 (pH 7.4). FRT cells were bathed for a 10 min stabilization period and gassed with 5% CO2 and 95% O2 at 37 °C. The apical membrane current was recorded with an EVC4000 Multi-Channel V/I Clamp (World Precision Instruments, Sarasota, FL, USA) and a PowerLab 4/35 (AD Instruments, Castle Hill, Australia).

human ANO2 = target: T2, human ANO2 (Homo sapiens, UniProt Q9NQ90); test: YFP fluorescence quenching assay in FRT cells expressing human ANO2; assay type: cell-based; settings: 30 μM, ANO2 activated by 100 μM ATP
T2 construct: expressed in transfected cells; host or cells: Fisher rat thyroid (FRT) cells
T2 sequence (Q9NQ90 1-998): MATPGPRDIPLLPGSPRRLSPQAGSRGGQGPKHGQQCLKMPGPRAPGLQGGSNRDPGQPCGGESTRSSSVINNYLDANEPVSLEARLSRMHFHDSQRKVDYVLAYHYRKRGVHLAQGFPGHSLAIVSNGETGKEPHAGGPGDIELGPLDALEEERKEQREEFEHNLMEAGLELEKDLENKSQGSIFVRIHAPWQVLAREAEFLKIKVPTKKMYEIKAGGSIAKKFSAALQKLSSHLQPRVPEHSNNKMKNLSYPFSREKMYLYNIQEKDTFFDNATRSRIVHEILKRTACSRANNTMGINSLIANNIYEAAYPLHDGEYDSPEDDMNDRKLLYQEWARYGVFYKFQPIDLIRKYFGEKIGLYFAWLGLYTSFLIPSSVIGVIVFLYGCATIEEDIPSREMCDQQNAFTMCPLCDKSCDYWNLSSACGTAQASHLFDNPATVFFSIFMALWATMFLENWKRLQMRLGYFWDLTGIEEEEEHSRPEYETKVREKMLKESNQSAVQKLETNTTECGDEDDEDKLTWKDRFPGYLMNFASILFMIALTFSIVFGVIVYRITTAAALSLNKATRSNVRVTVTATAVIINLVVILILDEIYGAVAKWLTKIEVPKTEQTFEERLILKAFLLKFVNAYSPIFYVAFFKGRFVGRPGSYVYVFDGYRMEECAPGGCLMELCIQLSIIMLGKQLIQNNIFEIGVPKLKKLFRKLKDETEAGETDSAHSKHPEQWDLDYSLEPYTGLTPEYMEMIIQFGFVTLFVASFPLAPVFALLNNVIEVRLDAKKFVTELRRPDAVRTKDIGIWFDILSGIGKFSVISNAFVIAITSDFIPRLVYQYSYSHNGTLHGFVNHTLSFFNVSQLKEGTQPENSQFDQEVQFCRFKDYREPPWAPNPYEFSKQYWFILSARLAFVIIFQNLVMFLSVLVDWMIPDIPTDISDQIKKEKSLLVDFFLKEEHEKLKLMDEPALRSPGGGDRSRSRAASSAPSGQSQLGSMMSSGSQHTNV
Description: ANO2 activity was measured using YFP fluorescence quenching assay in FRT cells expressing human ANO2.
(D) Representative YFP fluorescence traces in FRT cells expressing human ANO2.

ANO1 = target: T3, ANO1 (Homo sapiens, UniProt Q5XXA6, DEL476-501); test: YFP fluorescence quenching assay for ANO1 activity in FRT-ANO1 cells; assay type: cell-based; settings: ATP 100 μM, n = 4
T3 construct: expressed in transfected cells; host or cells: Fisher rat thyroid (FRT) cells; The YFP assay uses FRT-ANO1-YFP cells, which also carry the halide sensor
T3 sequence (Q5XXA6 with tags, fused parts or gaps isoform Q5XXA6-5 DEL539-564): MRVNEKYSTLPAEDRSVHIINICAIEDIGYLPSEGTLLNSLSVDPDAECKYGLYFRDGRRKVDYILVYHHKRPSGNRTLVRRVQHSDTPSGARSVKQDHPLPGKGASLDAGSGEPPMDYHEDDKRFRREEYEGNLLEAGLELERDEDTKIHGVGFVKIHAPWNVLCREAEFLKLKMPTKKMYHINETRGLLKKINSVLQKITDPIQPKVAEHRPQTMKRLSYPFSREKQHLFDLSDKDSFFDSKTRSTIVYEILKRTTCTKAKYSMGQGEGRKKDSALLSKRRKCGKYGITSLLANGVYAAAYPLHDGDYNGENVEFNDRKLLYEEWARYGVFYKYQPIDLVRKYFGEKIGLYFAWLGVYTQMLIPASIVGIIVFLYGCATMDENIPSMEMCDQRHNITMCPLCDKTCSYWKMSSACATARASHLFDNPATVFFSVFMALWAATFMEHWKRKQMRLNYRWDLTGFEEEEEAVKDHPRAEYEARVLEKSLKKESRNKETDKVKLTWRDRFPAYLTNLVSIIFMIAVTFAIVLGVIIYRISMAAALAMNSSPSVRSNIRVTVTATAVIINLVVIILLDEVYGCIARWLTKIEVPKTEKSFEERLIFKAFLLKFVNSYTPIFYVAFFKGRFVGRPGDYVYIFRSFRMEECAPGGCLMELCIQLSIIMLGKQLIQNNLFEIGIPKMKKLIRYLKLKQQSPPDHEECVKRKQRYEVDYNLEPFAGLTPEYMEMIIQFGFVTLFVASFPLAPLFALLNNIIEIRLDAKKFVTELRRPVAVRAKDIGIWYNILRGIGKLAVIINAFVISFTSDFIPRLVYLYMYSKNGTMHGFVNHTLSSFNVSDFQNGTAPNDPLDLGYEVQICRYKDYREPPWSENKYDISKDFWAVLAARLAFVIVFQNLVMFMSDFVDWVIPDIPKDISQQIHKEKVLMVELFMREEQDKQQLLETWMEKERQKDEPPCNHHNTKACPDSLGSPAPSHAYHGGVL
Description: Figure 2 Inhibitory effects of VI-101, VI-201 and VI-301 on VRAC and ANO1. (A–C) Representative YFP fluorescence traces for VRAC activity. LN215 cells were treated with the indicated concentrations of VI-101, VI-201 and VI-301 with hypotonic solution for 5 min. (D) Dose-response curve of VRAC inhibition (mean ± S.E., n = 4). (E–G) Representative YFP fluorescence traces for ANO1 activity. […]. (H) Dose-response curve of ANO1 inhibition (mean ± S.E., n = 4).
Human ANO1(abc) expressing Fisher rat thyroid (FRT) cells, ANO2 expressing FRT cells, and human CFTR expressing FRT cells were cultured as described in a previous study. LN215 cells were stably transfected with the halide sensor YFP-F46L/H148Q/I152 and NIH-3T3 cells cultured in DMEM were supplemented with 10% FBS, 2 mM L-glutamine, 100 units/mL penicillin, and 100 μg/mL streptomycin. HEK293T cells were stably transfected with the human Kv11.1 (hERG) and cultured in DMEM supplemented with 10% FBS, 2 mM L-glutamine, 100 units/mL penicillin, and 100 μg/mL streptomycin. PC3, HT29, and HeLa cells were stably transfected with the halide sensor YFP-F46L/H148Q/I152 and cultured in RPMI 1640 supplemented with 10% FBS, 2 mM L-glutamine, 100 units/mL penicillin, and 100 μg/mL streptomycin. […]

VRAC [1] = target: T4, VRAC (Homo sapiens, UniProt Q8IWT6); test: cell-based; settings: VRAC IC50, YFP fluorescence quenching, LN215 cells, hypotonic solution 5 min, n = 4
T4 sequence (Q8IWT6 1-810): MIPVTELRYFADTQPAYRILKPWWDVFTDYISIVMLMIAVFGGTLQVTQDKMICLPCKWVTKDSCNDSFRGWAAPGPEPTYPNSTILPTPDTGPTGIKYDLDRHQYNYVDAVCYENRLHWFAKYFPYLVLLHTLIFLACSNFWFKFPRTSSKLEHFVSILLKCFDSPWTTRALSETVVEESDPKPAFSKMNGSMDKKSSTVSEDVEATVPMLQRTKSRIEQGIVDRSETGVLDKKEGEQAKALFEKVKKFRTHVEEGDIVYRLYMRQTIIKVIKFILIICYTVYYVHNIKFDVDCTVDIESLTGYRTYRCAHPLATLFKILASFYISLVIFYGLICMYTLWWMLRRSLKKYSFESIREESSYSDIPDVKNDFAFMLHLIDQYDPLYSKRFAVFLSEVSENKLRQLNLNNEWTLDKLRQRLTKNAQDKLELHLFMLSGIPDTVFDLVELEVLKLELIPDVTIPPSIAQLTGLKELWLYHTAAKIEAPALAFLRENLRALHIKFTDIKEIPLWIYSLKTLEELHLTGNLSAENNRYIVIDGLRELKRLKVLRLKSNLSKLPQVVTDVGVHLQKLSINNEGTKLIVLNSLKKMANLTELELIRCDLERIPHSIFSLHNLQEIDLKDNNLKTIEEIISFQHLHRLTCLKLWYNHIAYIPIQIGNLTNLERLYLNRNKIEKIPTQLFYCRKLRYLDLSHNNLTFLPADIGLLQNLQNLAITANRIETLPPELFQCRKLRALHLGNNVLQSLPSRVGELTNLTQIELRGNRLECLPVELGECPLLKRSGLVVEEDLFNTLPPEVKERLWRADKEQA

VRAC [2] = target: T4, VRAC; settings: read-out: VRAC IC50; YFP fluorescence quenching, LN215 cells, hypotonic solution 5 min, n = 4

Structure (SMILES) | block of CFTR (human CFTR) | block of ANO2 (human ANO2) | IC50 (ANO1) [µM] | IC50 (VRAC [1]) | IC50 (VRAC [2]) [µM]
O=C(O)c1ccc(/C=C2\SC(=S)N(c3cccc(C(F)(F)F)c3)C2=O)cc1 [CFTRinh−172] | completely blocked |  |  |  | 
CCc1c(C)nc(SCC(=O)Nc2nc(-c3ccc(OC)cc3)cs2)[nH]c1=O [T16Ainh-A01, reference compound] |  | completely blocked |  |  | 
O=c1oc2ccccc2c(O)c1C(c1cc([N+](=O)[O-])ccc1Cl)c1c(O)c2ccccc2oc1=O [VI-101] |  |  | 3.2 | 3.3 µM | 
O=c1oc2ccccc2c(O)c1C(c1ccc(Cl)c([N+](=O)[O-])c1)c1c(O)c2ccccc2oc1=O [VI-102] |  |  | 3 | 0.8 µM | 
O=c1oc2ccccc2c(O)c1C(c1cc([N+](=O)[O-])c(Cl)cc1Cl)c1c(O)c2ccccc2oc1=O [VI-103] |  |  | 3.2 | 3.3 µM | 
O=c1oc2ccccc2c(O)c1C(c1cc([N+](=O)[O-])cc([N+](=O)[O-])c1Cl)c1c(O)c2ccccc2oc1=O [VI-104] |  |  | 37.9 | 30 µM | 
O=c1oc2ccccc2c(O)c1C(c1cccc([N+](=O)[O-])c1)c1c(O)c2ccccc2oc1=O [VI-105] |  |  | 3.8 | 4.9 µM | 
CN(C)c1ccc(C(c2c(O)c3ccccc3oc2=O)c2c(O)c3ccccc3oc2=O)cc1[N+](=O)[O-] [VI-106] |  |  | 3.6 | 1.3 µM | 
O=c1oc2ccccc2c(O)c1C(c1ccccc1)c1c(O)c2ccccc2oc1=O [VI-107] |  |  | 95.2 |  | 103
O=c1oc2ccccc2c(O)c1C(c1ccncc1)c1c(O)c2ccccc2oc1=O [VI-108] |  |  | 34.7 | 17 µM | 
O=c1oc2ccccc2c(O)c1C(c1ccccc1Cl)c1c(O)c2ccccc2oc1=O [VI-109] |  |  | 2 | 0.9 µM | 
O=c1oc2ccccc2c(O)c1C(c1ccccc1F)c1c(O)c2ccccc2oc1=O [VI-110] |  |  | 4.8 | 0.58 µM and 0.6 µM | 
CCN(CC)c1ccc(C(c2c(O)c3ccccc3oc2=O)c2c(O)c3ccccc3oc2=O)cc1 [VI-111] |  |  | 3.2 | 2.9 µM | 
CC(C)Oc1ccc(C(c2c(O)c3ccccc3oc2=O)c2c(O)c3ccccc3oc2=O)cc1 [VI-112] |  |  | 0.8 | 1.4 µM | 
O=c1oc2ccccc2c(O)c1C(c1ccc2c(c1)OCO2)c1c(O)c2ccccc2oc1=O [VI-113] |  |  | 3.9 | 1.9 µM | 
O=c1oc2ccccc2c(O)c1C(c1cc2c(cc1[N+](=O)[O-])OCO2)c1c(O)c2ccccc2oc1=O [VI-114] |  |  | 20.3 | 10.6 µM | 
O=c1oc2ccccc2c(O)c1C(c1ccc(O)c(O)c1)c1c(O)c2ccccc2oc1=O [VI-115] |  |  | 61.6 | 47.9 µM | 
CCOc1cc(C(c2c(O)c3ccccc3oc2=O)c2c(O)c3ccccc3oc2=O)ccc1O [VI-117] |  |  | 14.2 | 6.8 µM | 
COc1ccc(C(c2c(O)c3ccccc3oc2=O)c2c(O)c3ccccc3oc2=O)cc1OC [VI-118] |  |  | 14.2 | 4 µM | 
CCOc1ccc(C(c2c(O)c3ccccc3oc2=O)c2c(O)c3ccccc3oc2=O)cc1OC [VI-119] |  |  | 4.9 | 12 µM | 
COc1cc(OC)cc(C(c2c(O)c3ccccc3oc2=O)c2c(O)c3ccccc3oc2=O)c1 [VI-120] |  |  | 3.9 | 9.3 µM | 
